{"source": "patent EP0139891A2", "about": "“Pharmaceutical compositions with antibiotic-immunostimulating activity” (B.T.B. INDUSTRIA CHIMICA S.p.A., priority 1983, dated 1985)", "key": {"pneumococ bacteria": {"tested_on": "pneumococ bacteria", "assay": "Antibacterial in vivo activity in infected rats", "design": "species or system Sprague-Dawley rats", "conditions": "rats infected with LD100 of pneumococ bacteria; orally every twelve hours 25 mg/kg as erythromycin base; 8 days observation", "experimental": "60 Sprague-Dawley rats of both sexes (3 lots of 20 animals each) were infected with an LD100 of pneumococ bacteria. Said LD100 was determined in 10^6C.F.U. and was given to the rats through tracheal cannula. The death of the animals occurred at the 3rd-4th day. The observation period lasted 8 days.\nThe obtained results are reported in the fol lowing Table I and are expressed as per cent mortalities over the controls.\nBoth the dead and the survived animals underwent a hystological examination of the main organs, namely lungs, liver, kidneys, heart and brain."}, "K562": {"tested_on": "K562", "assay": "Natural killer activity test on lymphocytes of treated patients", "assay_type": "in vivo", "conditions": "same patients and doses, percentage of aspecific lysis of K562", "experimental": "(§1) of F.F.001 was investigated in a clinical research on patients affected by chronic bronchial infection. The immunostimulating action was determined through the monitorage of the phagocytary and NK cells activity.\nThis test consists in the determination of the percentage of aspecific lysis of a human tumoral target, K562, mediated by circulating lymphocytes.\nThe lymphocytes were isolated by centrifuging heparinized blood at a 1:1 dilution with physiologic solution or with a solution of \"Hanks\" salts of \"Ficol\".\nAfter 30 min. of centrifugation at 1000 r.p.m. a band of stratified leucocytes was obtained over the \"Ficol\" level.\nAt the same time the K562 were labelled with ^51Cr by adding the radioisotope solution to a suspension containing […] in 0.5 ml of colture medium.\nAfter 45 min. of incubation at 37 degrees C the cells were washed three times with a solution of \"Hanks\" salts.\nThe labelled cells were then incubated with leucocytes at 37 degrees C at various ratios for 4 h, after which the percentage of […] release was determined in the supernatant and assumed to be directly proportional to the K562 cell lysis mediated by leucocytes.\n(§2) In the groups 1), 3), 4) and 5) the dose of erythromycin was always 1 gram; in the groups 2), 3), 4) and 5) the corresponding dose of inosine was 182 mg."}, "[1]": {"assay": "Acute toxicity after oral administration", "conditions": "in vivo, rat"}, "St Albus ATCC 12228": {"tested_on": "St Albus ATCC 12228", "assay": "Phagocytosis test on phagocytes of treated patients", "assay_type": "in vivo", "conditions": "patients with chronical bronchitis, erythromycin 1 gram and/or inosine 182 mg", "experimental": "as §1\n2 Ml of a phagocytes suspension (10^6 phagocy- tes/ml) was mixed up in a sterile test tube with 2 ml of St Albus ATCC 12228 (10^6 microorganisms/ ml) suspended in Gelatine \"Hanks-solution\" with 10% AB serum and 0.4 ml of AB serum.\nThe mixture was then incubated at 37 degrees C under continuous stirring. 2 Ml of St Albus ATCC 12228 suspended in gelatine \"Hanks-solution\" with 10% of AB serum (10^6 microorganisms/ml) were mixed up in another sterile test tube with 2.04 ml of Gelatine \"Hanks-solution\" and incubated under the same conditions described above.\nAt regular time intervals (0-30 min.-60 min.-90 min.) aliquots of the suspension corresponding to 0.5 ml were added to 1.5 Ml of Gelatine \"Hanks-so lution\" previously cooled to 4 degrees in order to stop the phagocytosis process.\nThe samples were then centrifuged for 4 min. at 110 r.p.m. in order to obtain the complete sedimen tation of the leucocytes, while the upper phase consisted of a suspension containing the bacteria (supernatant).\nThe supernatant liquid was then diluted with a\nsterile saline solution (Bacto-haemogglutination Soerensen buffer) at a 1:10 ratio, in order to be sure that at least the last dilution contained a number of living bacteria ranging between 100 and 1000/ml.\nAliquots of 0.1 ml of bacterial suspension were then taken from the […] dilutions and both of them were pipetted on a plate containing Diagnostic Sensitive Test Agar (Oxoid) and immedia tely distributed on the whole surface with a sterile spatula.\nThe plates were incubated at 37 degrees C for 24 h and the number of colonies was then determined with a colony counter.\nThe same procedure was followed after having withdrawn aliquots of 0.5 ml of bacterial suspension from the test tube.\nPhagocytosis, as a function of time, was determined in vitro and can be expressed as the reduction percent of the number of living bacteria deter mined at the beginning of the experiment (No). [formula]\nF(t) is the phagocytosis index after t min., while Nt is the number of living bacteria after t min.\nas §2"}, "S. pyogenes": {"tested_on": "S. pyogenes", "assay": "Antibacterial in vitro activity (M.I.C.)", "assay_type": "cell-based", "conditions": "micrograms of substance per ml of bacterial suspension", "experimental": "(§3) The M.I.C.s were determined against three pathogenic bacterial strains, and are expressed as micrograms of substance per ml of bacterial suspension […]."}, "H. influenzae": {"tested_on": "H. influenzae", "assay": "Antibacterial in vitro activity (M.I.C.)", "assay_type": "cell-based", "conditions": "micrograms of substance per ml of bacterial suspension", "experimental": "as §3"}, "S. aureus": {"tested_on": "S. aureus", "assay": "Antibacterial in vitro activity (M.I.C.)", "assay_type": "cell-based", "conditions": "micrograms of substance per ml of bacterial suspension", "experimental": "as §3"}, "[2]": {"conditions": "0 hours (moment of administration)"}, "[3]": {"conditions": "0 hours (moment of administration), reduction percent of living bacteria"}}, "note": "Structures can show the parent of a compound that is named as a salt."}
{"molecule": "CC[C@H]1OC(=O)[C@H](C)[C@@H](O[C@H]2C[C@@](C)(OC)[C@@H](O)[C@H](C)O2)[C@H](C)[C@@H](O[C@@H]2O[C@H](C)C[C@H](N(C)C)[C@H]2O)[C@](C)(O)C[C@@H](C)C(=O)[C@H](C)[C@@H](O)[C@]1(C)O", "note": "[Erythromycin, erythromycin]", "values": [{"measurement": "Mortality", "setting": "pneumococ bacteria", "result": 5, "unit": "%"}, {"measurement": "NK-test", "setting": "K562; [2]", "result": "7.4-23.0"}, {"measurement": "NK-test", "setting": "K562; 2 hours after administration", "result": "7.4-23.0"}, {"measurement": "NK-test", "setting": "K562; 4 hours after administration", "result": "7.4-23.0"}, {"measurement": "NK-test", "setting": "K562; 6 hours after administration", "result": "7.4-23.0"}, {"measurement": "NK-test", "setting": "K562; 8 hours after administration", "result": "45.3-67.8"}, {"measurement": "NK-test", "setting": "K562; 24 hours after administration", "result": "7.4-23.0"}, {"measurement": "LD50", "setting": "[1]", "result": "> 6000", "unit": "mg/kg"}, {"measurement": "phagocytosis", "setting": "St Albus ATCC 12228; [3]", "result": "8-24"}, {"measurement": "phagocytosis", "setting": "St Albus ATCC 12228; 2 hours after administration", "result": "8-24"}, {"measurement": "phagocytosis", "setting": "St Albus ATCC 12228; 4 hours after administration", "result": "8-24"}, {"measurement": "phagocytosis", "setting": "St Albus ATCC 12228; 6 hours after administration", "result": "8-24"}, {"measurement": "phagocytosis", "setting": "St Albus ATCC 12228; 8 hours after administration", "result": "31-60"}, {"measurement": "phagocytosis", "setting": "St Albus ATCC 12228; 24 hours after administration", "result": "8-24"}]}
{"molecule": "OC[C@H]1O[C@@H](n2cnc3c(O)ncnc32)[C@H](O)[C@@H]1O", "note": "[Inosine, inosine]", "values": [{"measurement": "NK-test", "setting": "K562; [2]", "result": "4.5-19.0"}, {"measurement": "NK-test", "setting": "K562; 2 hours after administration", "result": "10.0-56.5"}, {"measurement": "NK-test", "setting": "K562; 4 hours after administration", "result": "4.5-19.0"}, {"measurement": "NK-test", "setting": "K562; 6 hours after administration", "result": "4.5-19.0"}, {"measurement": "NK-test", "setting": "K562; 8 hours after administration", "result": "4.5-19.0"}, {"measurement": "NK-test", "setting": "K562; 24 hours after administration", "result": "4.5-19.0"}, {"measurement": "phagocytosis", "setting": "St Albus ATCC 12228; [3]", "result": "5-19"}, {"measurement": "phagocytosis", "setting": "St Albus ATCC 12228; 2 hours after administration", "result": "10-50"}, {"measurement": "phagocytosis", "setting": "St Albus ATCC 12228; 4 hours after administration", "result": "5-19"}, {"measurement": "phagocytosis", "setting": "St Albus ATCC 12228; 6 hours after administration", "result": "5-19"}, {"measurement": "phagocytosis", "setting": "St Albus ATCC 12228; 8 hours after administration", "result": "5-19"}, {"measurement": "phagocytosis", "setting": "St Albus ATCC 12228; 24 hours after administration", "result": "5-19"}]}
{"molecule": "CCOC(=O)CCC(=O)O[C@H]1[C@H](O[C@@H]2[C@@H](C)[C@H](O[C@H]3C[C@@](C)(OC)[C@@H](O)[C@H](C)O3)[C@@H](C)C(=O)O[C@H](CC)[C@@](C)(O)[C@H](O)[C@@H](C)C(=O)[C@H](C)C[C@@]2(C)O)O[C@H](C)C[C@@H]1N(C)C", "note": "[F.F.002, salt of erythromycin ethylsuccinate with inosine-5-phosphoric acid in the molar ratio 2:1]", "values": [{"measurement": "NK-test", "setting": "K562; [2]", "result": "5.2-17.8"}, {"measurement": "NK-test", "setting": "K562; 2 hours after administration", "result": "44.9-68.2"}, {"measurement": "NK-test", "setting": "K562; 4 hours after administration", "result": "46.1-69.8"}, {"measurement": "NK-test", "setting": "K562; 6 hours after administration", "result": "50.1-71.8"}, {"measurement": "NK-test", "setting": "K562; 8 hours after administration", "result": "52.9-76.1"}, {"measurement": "NK-test", "setting": "K562; 24 hours after administration", "result": "5.2-17.8"}, {"measurement": "phagocytosis", "setting": "St Albus ATCC 12228; [3]", "result": "5-20"}, {"measurement": "phagocytosis", "setting": "St Albus ATCC 12228; 2 hours after administration", "result": "16-62"}, {"measurement": "phagocytosis", "setting": "St Albus ATCC 12228; 4 hours after administration", "result": "16-62"}, {"measurement": "phagocytosis", "setting": "St Albus ATCC 12228; 6 hours after administration", "result": "16-62"}, {"measurement": "phagocytosis", "setting": "St Albus ATCC 12228; 8 hours after administration", "result": "34-82"}, {"measurement": "phagocytosis", "setting": "St Albus ATCC 12228; 24 hours after administration", "result": "5-20"}]}
{"molecule": "salt of erythromycin propionate with inosine-5-phosphoric acid in the molar ratio 2:1 [F.F.001]", "values": [{"measurement": "Mortality", "setting": "pneumococ bacteria", "result": 0, "unit": "%"}, {"measurement": "minimum inhibiting concentration (M.I.C.)", "setting": "S. pyogenes", "result": "0.036 ℓ/ml"}, {"measurement": "minimum inhibiting concentration (M.I.C.)", "setting": "H. influenzae", "result": "0.31 ℓ/ml"}, {"measurement": "minimum inhibiting concentration (M.I.C.)", "setting": "S. aureus", "result": "0.31 ℓ/ml"}, {"measurement": "NK-test", "setting": "K562; [2]", "result": "4.9-21.7"}, {"measurement": "NK-test", "setting": "K562; 2 hours after administration", "result": "45.8-68"}, {"measurement": "NK-test", "setting": "K562; 4 hours after administration", "result": "47.3-70.1"}, {"measurement": "NK-test", "setting": "K562; 6 hours after administration", "result": "48.0-71.1"}, {"measurement": "NK-test", "setting": "K562; 8 hours after administration", "result": "50.2-74.2"}, {"measurement": "NK-test", "setting": "K562; 24 hours after administration", "result": "4.9-21.7"}, {"measurement": "phagocytosis", "setting": "St Albus ATCC 12228; [3]", "result": "5-20"}, {"measurement": "phagocytosis", "setting": "St Albus ATCC 12228; 2 hours after administration", "result": "16-62"}, {"measurement": "phagocytosis", "setting": "St Albus ATCC 12228; 4 hours after administration", "result": "16-62"}, {"measurement": "phagocytosis", "setting": "St Albus ATCC 12228; 6 hours after administration", "result": "16-62"}, {"measurement": "phagocytosis", "setting": "St Albus ATCC 12228; 8 hours after administration", "result": "34-82"}, {"measurement": "phagocytosis", "setting": "St Albus ATCC 12228; 24 hours after administration", "result": "5-20"}]}
{"molecule": "CCC(=O)O[C@H]1[C@H](O[C@@H]2[C@@H](C)[C@H](O[C@H]3C[C@@](C)(OC)[C@@H](O)[C@H](C)O3)[C@@H](C)C(=O)O[C@H](CC)[C@@](C)(O)[C@H](O)[C@@H](C)C(=O)[C@H](C)C[C@@]2(C)O)O[C@H](C)C[C@@H]1N(C)C", "note": "[Er. prop., erythromycin propionate]", "values": [{"measurement": "Mortality", "setting": "pneumococ bacteria", "result": 5, "unit": "%"}, {"measurement": "MIC", "setting": "S. pyogenes; Streptococcus pyogenes, read-out: minimum inhibiting concentration (M.I.C.)", "result": 0.04, "unit": "µg/mL"}, {"measurement": "MIC", "setting": "H. influenzae; Haemophilus influenzae, read-out: minimum inhibiting concentration (M.I.C.)", "result": 0.31, "unit": "µg/mL"}, {"measurement": "MIC", "setting": "S. aureus; Staphylococcus aureus, read-out: minimum inhibiting concentration (M.I.C.)", "result": 0.35, "unit": "µg/mL"}]}
